In ChEMBL document CHEMBL1139672, “1,2,3,4-Tetrahydroisoquinolinyl sulfamic acids as phosphatase PTP1B inhibitors” (Bioorg Med Chem Lett, 2006):

Experiments:
[1] = molecular target: Dual specificity protein phosphatase 3 (Homo sapiens, UniProt P51452); assay: Inhibition of VHR
[2] = molecular target: T1, Tyrosine-protein phosphatase non-receptor type 2 (Homo sapiens, UniProt P17706); assay: Inhibition of TCPTP
T1 sequence (P17706 whole entry): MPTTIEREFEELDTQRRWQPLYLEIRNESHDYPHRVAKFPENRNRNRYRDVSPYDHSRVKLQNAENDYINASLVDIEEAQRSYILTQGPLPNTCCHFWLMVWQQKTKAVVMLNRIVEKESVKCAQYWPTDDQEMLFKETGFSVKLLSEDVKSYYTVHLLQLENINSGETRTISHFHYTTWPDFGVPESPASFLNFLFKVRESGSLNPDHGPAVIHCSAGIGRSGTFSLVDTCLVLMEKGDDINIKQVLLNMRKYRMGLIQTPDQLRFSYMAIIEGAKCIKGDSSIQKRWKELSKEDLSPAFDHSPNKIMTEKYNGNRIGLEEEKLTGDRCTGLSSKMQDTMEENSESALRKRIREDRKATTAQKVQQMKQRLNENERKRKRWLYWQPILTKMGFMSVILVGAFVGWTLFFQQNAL

[3] = molecular target: T2, Receptor-type tyrosine-protein phosphatase C (Homo sapiens, UniProt P08575); assay: Inhibition of CD45
T2 sequence (P08575 whole entry): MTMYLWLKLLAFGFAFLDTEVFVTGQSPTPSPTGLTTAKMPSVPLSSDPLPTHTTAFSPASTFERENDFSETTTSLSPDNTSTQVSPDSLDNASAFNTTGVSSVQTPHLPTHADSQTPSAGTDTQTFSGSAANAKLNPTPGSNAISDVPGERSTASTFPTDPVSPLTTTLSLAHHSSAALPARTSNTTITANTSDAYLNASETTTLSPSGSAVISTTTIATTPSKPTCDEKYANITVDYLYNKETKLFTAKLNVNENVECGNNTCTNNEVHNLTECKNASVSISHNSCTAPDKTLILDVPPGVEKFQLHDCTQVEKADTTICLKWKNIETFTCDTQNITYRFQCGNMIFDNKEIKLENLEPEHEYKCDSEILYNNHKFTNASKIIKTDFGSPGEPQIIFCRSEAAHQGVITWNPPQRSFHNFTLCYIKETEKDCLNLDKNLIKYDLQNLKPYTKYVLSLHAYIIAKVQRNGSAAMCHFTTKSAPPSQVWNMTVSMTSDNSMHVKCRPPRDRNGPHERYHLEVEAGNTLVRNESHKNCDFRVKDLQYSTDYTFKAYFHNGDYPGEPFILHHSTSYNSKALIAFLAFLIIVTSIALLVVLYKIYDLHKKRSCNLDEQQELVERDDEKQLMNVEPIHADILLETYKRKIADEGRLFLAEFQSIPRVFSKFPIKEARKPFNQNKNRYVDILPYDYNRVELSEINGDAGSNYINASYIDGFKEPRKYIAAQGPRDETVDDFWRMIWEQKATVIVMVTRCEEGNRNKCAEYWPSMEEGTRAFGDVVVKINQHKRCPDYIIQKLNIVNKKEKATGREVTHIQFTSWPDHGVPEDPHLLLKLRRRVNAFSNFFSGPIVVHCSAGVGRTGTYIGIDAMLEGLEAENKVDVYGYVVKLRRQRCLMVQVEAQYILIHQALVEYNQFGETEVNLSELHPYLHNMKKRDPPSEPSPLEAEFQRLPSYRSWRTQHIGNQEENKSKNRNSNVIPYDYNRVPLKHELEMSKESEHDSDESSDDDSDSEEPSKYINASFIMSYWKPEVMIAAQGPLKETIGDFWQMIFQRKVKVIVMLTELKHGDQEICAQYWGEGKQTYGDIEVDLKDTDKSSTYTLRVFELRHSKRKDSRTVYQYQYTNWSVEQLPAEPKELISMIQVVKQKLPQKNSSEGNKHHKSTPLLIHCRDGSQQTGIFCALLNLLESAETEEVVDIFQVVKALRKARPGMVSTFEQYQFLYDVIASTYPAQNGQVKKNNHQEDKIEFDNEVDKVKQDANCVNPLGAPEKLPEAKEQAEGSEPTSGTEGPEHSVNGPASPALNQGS

[4] = molecular target: Receptor-type tyrosine-protein phosphatase gamma (Homo sapiens, UniProt P23470); assay: Inhibition of PTP gamma
[5] = Inhibition of STP1
[6] = molecular target: T3, Tyrosine-protein phosphatase non-receptor type 11 (Homo sapiens, UniProt Q06124); assay: Inhibition of SHP2
T3 sequence (Q06124 whole entry): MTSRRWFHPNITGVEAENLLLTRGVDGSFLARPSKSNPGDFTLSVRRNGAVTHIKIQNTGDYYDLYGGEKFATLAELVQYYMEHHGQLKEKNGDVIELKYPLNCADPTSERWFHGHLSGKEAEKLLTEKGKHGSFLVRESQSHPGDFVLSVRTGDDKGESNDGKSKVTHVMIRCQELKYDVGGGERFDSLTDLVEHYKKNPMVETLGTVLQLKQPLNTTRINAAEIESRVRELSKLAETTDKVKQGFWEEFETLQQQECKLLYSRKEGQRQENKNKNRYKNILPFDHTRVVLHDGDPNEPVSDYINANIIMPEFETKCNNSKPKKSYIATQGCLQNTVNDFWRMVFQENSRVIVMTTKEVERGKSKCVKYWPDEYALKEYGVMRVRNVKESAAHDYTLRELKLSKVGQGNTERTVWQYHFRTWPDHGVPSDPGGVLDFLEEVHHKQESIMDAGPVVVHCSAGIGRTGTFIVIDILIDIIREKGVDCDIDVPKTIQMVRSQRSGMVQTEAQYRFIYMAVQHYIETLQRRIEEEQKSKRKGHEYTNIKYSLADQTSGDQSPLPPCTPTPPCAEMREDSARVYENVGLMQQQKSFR

[7] = molecular target: Receptor-type tyrosine-protein phosphatase mu (Homo sapiens, UniProt P28827); assay: Inhibition of HPTP mu
[8] = molecular target: Receptor-type tyrosine-protein phosphatase F (Homo sapiens, UniProt P10586); assay: Inhibition of LAR
[9] = molecular target: T4, Low molecular weight phosphotyrosine protein phosphatase (Homo sapiens, UniProt P24666); assay: Inhibition of HCPTPA
T4 sequence (P24666 whole entry): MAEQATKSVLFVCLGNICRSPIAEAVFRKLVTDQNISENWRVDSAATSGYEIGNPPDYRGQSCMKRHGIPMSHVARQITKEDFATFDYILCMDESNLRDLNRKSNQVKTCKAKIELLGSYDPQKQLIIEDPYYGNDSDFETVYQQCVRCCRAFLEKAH

[10] = molecular target: T1, Tyrosine-protein phosphatase non-receptor type 2; assay: Inhibition of TC-PTP38
[11] = molecular target: Receptor-type tyrosine-protein phosphatase epsilon (Homo sapiens, UniProt P23469); assay: Inhibition of HPTP epsilon
[12] = molecular target: Tyrosine-protein phosphatase non-receptor type 6 (Homo sapiens, UniProt P29350); assay: Inhibition of SHP1
[13] = molecular target: Receptor-type tyrosine-protein phosphatase beta (Homo sapiens, UniProt P23467); assay: Inhibition of HPTP beta

Sequence of Receptor-type tyrosine-protein phosphatase F (P10586 whole entry): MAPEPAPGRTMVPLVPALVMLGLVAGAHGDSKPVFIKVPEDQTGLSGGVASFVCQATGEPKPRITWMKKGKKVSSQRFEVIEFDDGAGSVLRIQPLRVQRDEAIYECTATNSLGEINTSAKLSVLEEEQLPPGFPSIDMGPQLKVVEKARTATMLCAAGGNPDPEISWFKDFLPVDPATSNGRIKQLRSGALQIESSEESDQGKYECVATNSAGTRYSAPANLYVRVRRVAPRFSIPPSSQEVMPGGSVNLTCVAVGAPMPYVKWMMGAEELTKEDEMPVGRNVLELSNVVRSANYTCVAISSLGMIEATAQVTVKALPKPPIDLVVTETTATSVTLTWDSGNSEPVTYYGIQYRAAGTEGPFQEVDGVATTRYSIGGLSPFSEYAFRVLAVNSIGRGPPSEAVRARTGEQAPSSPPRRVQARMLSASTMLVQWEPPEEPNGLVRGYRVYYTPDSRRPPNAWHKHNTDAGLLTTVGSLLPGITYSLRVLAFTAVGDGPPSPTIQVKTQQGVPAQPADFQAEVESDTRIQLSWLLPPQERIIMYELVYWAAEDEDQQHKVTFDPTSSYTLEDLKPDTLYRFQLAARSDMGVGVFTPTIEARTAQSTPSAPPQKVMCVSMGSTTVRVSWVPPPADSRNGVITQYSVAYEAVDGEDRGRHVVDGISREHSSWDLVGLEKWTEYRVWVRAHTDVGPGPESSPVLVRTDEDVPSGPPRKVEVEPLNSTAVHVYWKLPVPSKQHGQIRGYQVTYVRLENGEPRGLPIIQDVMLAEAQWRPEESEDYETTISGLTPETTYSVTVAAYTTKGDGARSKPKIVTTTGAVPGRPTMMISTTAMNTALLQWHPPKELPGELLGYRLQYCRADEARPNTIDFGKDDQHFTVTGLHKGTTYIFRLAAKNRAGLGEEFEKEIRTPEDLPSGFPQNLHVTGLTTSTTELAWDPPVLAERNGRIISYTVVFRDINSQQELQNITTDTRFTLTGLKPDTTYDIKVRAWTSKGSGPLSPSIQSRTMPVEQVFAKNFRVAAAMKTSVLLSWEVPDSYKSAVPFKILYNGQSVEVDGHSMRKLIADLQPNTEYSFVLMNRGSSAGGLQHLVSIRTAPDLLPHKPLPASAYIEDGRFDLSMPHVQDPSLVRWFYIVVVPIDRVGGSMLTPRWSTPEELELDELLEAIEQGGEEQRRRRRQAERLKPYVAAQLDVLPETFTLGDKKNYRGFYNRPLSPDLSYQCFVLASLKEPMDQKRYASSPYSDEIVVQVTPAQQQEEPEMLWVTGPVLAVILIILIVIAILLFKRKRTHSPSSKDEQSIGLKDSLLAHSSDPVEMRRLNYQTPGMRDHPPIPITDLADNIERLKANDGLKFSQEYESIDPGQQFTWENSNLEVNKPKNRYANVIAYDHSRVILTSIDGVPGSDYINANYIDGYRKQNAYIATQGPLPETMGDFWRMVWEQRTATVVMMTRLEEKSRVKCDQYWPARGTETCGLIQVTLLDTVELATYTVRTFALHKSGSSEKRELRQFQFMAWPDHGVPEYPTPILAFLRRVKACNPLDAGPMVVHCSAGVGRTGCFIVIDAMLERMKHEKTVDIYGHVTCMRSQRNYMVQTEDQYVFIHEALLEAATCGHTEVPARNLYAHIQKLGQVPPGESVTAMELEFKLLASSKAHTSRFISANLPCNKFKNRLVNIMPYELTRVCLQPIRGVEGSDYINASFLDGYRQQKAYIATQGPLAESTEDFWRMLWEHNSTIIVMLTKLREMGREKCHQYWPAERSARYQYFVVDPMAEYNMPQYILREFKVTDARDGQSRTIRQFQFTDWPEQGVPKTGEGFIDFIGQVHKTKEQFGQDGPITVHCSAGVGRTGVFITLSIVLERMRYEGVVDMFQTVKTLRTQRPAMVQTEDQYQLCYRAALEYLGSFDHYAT
Sequence of Receptor-type tyrosine-protein phosphatase mu (P28827 whole entry): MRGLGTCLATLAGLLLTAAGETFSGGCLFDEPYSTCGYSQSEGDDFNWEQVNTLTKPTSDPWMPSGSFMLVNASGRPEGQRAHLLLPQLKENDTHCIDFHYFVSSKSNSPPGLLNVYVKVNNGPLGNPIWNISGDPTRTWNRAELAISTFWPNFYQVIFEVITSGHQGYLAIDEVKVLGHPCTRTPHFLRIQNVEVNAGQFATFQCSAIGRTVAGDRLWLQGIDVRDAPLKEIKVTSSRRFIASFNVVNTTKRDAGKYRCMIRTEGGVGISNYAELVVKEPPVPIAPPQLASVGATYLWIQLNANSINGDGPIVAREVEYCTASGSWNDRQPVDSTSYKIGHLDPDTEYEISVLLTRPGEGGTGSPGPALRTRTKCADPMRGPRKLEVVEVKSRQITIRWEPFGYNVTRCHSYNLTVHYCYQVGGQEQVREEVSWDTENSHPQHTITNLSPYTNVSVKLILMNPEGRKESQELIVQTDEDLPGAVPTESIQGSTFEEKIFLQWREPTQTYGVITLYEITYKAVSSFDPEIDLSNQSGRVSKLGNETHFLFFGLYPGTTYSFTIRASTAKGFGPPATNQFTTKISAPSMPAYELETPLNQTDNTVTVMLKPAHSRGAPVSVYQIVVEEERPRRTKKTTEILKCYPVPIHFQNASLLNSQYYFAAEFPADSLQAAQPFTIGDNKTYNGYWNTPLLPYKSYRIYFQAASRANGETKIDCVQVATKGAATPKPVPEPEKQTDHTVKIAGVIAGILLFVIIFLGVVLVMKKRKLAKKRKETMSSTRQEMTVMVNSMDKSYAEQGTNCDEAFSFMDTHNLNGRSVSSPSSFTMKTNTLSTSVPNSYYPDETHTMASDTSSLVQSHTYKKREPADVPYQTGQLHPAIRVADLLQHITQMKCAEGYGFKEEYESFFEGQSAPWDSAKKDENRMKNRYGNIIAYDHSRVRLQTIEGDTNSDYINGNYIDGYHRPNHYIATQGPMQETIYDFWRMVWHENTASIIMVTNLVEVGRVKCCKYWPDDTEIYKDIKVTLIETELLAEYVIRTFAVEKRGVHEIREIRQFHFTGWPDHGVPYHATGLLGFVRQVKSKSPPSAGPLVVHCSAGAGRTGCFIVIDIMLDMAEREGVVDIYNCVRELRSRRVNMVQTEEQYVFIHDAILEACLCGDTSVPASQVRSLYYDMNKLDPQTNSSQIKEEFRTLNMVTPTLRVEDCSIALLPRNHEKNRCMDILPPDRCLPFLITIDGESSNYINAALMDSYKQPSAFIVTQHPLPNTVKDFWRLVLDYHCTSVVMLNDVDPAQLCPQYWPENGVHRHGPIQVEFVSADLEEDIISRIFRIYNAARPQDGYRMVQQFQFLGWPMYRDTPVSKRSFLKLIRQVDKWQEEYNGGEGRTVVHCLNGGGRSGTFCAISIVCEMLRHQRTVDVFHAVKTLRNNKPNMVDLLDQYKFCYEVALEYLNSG
Sequence of Receptor-type tyrosine-protein phosphatase epsilon (P23469 whole entry): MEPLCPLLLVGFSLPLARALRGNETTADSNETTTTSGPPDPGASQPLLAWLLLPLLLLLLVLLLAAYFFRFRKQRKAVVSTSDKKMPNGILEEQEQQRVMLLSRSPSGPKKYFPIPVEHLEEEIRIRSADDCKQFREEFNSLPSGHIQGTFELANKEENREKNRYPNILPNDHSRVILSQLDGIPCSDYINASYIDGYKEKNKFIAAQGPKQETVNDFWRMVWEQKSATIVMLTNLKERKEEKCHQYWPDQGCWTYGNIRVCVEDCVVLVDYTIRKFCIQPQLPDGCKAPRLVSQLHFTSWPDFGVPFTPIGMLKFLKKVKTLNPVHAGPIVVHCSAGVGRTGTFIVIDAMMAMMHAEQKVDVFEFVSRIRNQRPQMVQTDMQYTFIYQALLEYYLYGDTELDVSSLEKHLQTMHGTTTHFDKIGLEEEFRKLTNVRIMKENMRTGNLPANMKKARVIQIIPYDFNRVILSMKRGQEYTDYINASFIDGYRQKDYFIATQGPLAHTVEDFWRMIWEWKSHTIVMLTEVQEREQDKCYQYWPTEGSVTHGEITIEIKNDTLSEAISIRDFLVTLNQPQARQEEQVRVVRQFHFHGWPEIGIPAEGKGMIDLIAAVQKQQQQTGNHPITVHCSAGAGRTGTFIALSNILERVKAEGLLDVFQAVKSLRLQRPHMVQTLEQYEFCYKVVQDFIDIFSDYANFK
Sequence of Dual specificity protein phosphatase 3 (P51452 whole entry): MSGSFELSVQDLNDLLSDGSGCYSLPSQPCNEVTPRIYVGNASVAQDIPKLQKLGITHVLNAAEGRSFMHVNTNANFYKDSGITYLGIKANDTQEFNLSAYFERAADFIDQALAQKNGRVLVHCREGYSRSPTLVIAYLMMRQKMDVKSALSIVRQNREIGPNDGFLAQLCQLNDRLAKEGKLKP
Sequence of Tyrosine-protein phosphatase non-receptor type 6 (P29350 whole entry): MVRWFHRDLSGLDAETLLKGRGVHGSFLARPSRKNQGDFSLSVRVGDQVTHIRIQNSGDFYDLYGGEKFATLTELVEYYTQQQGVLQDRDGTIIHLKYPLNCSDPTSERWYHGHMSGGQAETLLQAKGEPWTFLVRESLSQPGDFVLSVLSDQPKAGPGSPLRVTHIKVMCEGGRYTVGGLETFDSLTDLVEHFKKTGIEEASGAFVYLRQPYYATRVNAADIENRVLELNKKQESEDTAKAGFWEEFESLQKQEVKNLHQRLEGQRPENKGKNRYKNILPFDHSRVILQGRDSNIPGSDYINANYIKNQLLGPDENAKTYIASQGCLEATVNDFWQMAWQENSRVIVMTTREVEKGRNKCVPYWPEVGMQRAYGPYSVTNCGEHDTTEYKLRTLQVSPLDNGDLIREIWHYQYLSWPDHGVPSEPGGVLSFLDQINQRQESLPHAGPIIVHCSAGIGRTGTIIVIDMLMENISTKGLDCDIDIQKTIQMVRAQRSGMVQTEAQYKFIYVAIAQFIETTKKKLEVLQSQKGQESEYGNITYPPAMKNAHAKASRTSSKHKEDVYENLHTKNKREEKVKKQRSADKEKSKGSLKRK

IC50 [1]: 4 µM
IC50 [2]: 9.4 µM
IC50 [3]: > 500 µM
IC50 [4]: > 500 µM
IC50 [5]: 8.1 µM
IC50 [6]: > 500 µM
IC50 [7]: > 500 µM
IC50 [8]: > 500 µM
IC50 [9]: 3.1 µM
IC50 [10]: 9.9 µM
IC50 [11]: > 500 µM
IC50 [12]: 203 µM
IC50 [13]: 20.7 µM
Structure (SMILES): CNC(=O)[C@@H]1Cc2ccc(NS(=O)(=O)O)cc2CN1C(=O)CCc1cccc(NS(=O)(=O)O)c1
